{"source": "paper PMC8495968", "about": "“Towards optimizing peptide-based inhibitors of protein–protein interactions: predictive saturation variation scanning (PreSaVS)” (RSC Chemical Biology, 2021)", "key": {"hSUMO-1 18-97": {"target": "T1, hSUMO-1 18-97 (Homo sapiens, UniProt P63165)", "T1 construct": "18-97; His-TEV (N, cleaved yes); made in house", "T1 sequence (P63165 18-97)": "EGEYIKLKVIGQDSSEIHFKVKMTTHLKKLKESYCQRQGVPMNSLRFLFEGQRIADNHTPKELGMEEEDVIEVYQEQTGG", "test": "Fluorescence anisotropy competition assay, FITC-peg-SIM tracer / SUMO", "type": "binding", "details": "competition FA, 50 mM Tris, 150 mM NaCl, 25 nM tracer, 100 nM SUMO, read after 45 min, triplicate", "procedure": "hSUMO-1 18-97 was expressed and purified as previously described from a pet19b His-TEV-SUMO-1 (18-97) construct with cleavage of the tag using TEV protease.4 […]\n(§1) Fluorescence anisotropy assays were performed in 384-well plates (Greiner Bio-one). Each experiment was run in triplicate and the fluorescence anisotropy measured using a Perkin Elmer EnVisionTM 2103 MultiLabel plate reader, with excitation at 480 nm (30 nm bandwidth), polarised dichroic mirror at 505 nm and emission at 535 nm (40 nm bandwidth, S and P polarised). All assays were performed in 20 mM Tris, 100 mM NaCl, 0.1 mM DTT, pH 7.5 unless otherwise stated and data analysed following previously published methods.\n(§2) Fluorescence anisotropy data was processed as described previously.[2] Briefly. the data from both the P (perpendicular intensity) and S (parallel intensity) channels, resulting from this measurement and corrected by subtracting the corresponding control wells, were used to calculate the intensity and anisotropy for each well following Equations 1 and 2: […]\n(§3) For direct titration the average anisotropy (across three experimental replicates) and the standard deviation of these values were then calculated and fit to a logistic model using OriginPro 9.0 to determine the maximum and minimum anisotropies then the fraction bound calculated (Equation 3) and used to determine Kd (equation 4)\n(§4) Lb= (r‒rmin)/λ(rmax‒r)+r‒rmin Equation 3\n(§5) y= {(k+ x+[ FL])‒√{k+x+[FL] 2‒4x[FL]}}/2 Equation 4 r = anisotropy, I = total intensity, P = perpendicular intensity, S = parallel intensity, G = instrument factor which was set to 1 for all experiments, Lb = fraction ligand bound, λ = […]\n(§6) For competition experiments, the anisotropies were determined as for the direct titration and then plotted against inhibitor concentration and fit (equation 5) to determine the IC50 and error […]\n(§7) y = rmax + (rmin-rmax)/(1+(x/xo)p) Equation 5\n(§8) Where xo represents the IC50 […]\n(§9) Competition binding assays:\n(§10) FA competition assays were performed in 384 well plates with the concentration of variant […]\n(§11) with fixed protein and tracer concentrations. FITC-labelled peptide was added to each well to […]\n(§12) For control wells, the tracer peptide was replaced with an identical volume of assay buffer.\n(§13) The total volume in each well was 60 μL. […]"}, "[1]": {"test": "Solubility, qualitative test", "procedure": "(1 picture or pasted object on this page, not shown here)\nas §6, §7\nWhere xo represents the IC50\nFluorescence anisotropy direct titration assays were performed with protein concentration diluted over 16-24 points using 2-fold dilutions. Followed by addition of tracer peptide was added to the wells. For control wells, the tracer peptide was replaced with an identical volume of assay buffer. Plates were read after 45 minutes.\nas §9, §10, §11\n(§14) The total volume in each well was 60 μL. Plates were read after 45 minutes of incubation at […]\nITC experiments were carried out using a Microcal ITC200i instrument (Malvern) at 25°C in 20 mM Tris, 150 mM NaCl, pH 7.5 buffer. […] Data was analysed using Microcal Origin 8 and fitted to a one-binding site model\nSpectra were recorded on a Chirascan circular dichroism spectropolarimeter (Applied Photophysics), at 20°C, using 1 mm cells and a scan speed of 5 nm/min. […]\nPeptide solubility was assessed using a qualitative test. […]"}, "hMCL-1 172-327": {"target": "T2, hMCL-1 172-327 (Homo sapiens, UniProt Q07820)", "T2 construct": "172-327 was expressed; His-SUMO (N, cleaved yes); made in house", "T2 sequence (Q07820 172-327)": "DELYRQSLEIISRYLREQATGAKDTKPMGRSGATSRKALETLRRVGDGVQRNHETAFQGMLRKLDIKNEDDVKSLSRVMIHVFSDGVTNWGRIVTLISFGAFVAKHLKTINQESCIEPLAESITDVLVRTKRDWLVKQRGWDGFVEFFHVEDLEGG", "test": "Fluorescence anisotropy competition assay, FITC-Ahx-BIM75–85 tracer / MCL-1", "type": "binding", "procedure": "as §1, §2, §3, §4, §5, §6, §7, §8, §9, §10, §11, §12, §13"}, "α-chymotrypsin": {"system": "α-chymotrypsin", "test": "Proteolysis by α-chymotrypsin", "type": "in vitro ADME, bovine", "details": "45 μM peptide, 0.25 μg/ml α-chymotrypsin, 25 °C, 50 mM Tris-HCl pH 8.0, 150 mM NaCl, 10 mM CaCl2; LC-MS EIC of full-length peptide; triplicate", "from_the_text": "An advantage of PreSaVS lies in the ability to identify tolerated variants – in terms of target binding affinity – with more desirable physicochemical properties (Table S3 for calculated physicochemical properties, ESI ^†). […] This may arise from subtle changes in protease recognition specificity, although given proteases recognise substrates in an extended, β-like conformation as is the case for the SIM2705–2717/SUMO interaction, secondary structure propensity may also play a role.\nFigure S7. Proteolysis data for (a) NOXA75-93 (45 μM peptide in the presence of 0.25 μg/ml α-chymotrypsin at 25 °C) and (b) SIM2705-2717 (40 μM peptide in the presence of 0.75 μg/mL Proteinase K at 25 °C). Data points show the mean ± standard deviation over triplicate measurements. Insets show t1/2 values.\nas §8\ndiluted over 16-24 points using 2-fold dilutions. […]\nof assay buffer. Plates were read after 45 minutes. […]\nas §14\nuL injections with 120 s spacing between the injections. […] Data was analysed using Microcal Origin 8 and fitted to a one-binding site model […]\nPeptide solubility was assessed using a qualitative test.\n= 5690 M-1cm-1), concentrations were determined based on the absorbance at 280 nm. For NOXA variants, concentrations were determined based on absorbance at 205 nm (ε 205 = […]"}, "MCL-1": {"target": "T3, MCL-1 (Homo sapiens, UniProt Q07820)", "T3 construct": "172-327 was expressed; His-SUMO (N, cleaved yes); made in house", "T3 sequence (Q07820 172-327)": "as above", "test": "Isothermal calorimetry (ITC) of peptide binding to MCL-1", "details": "50 mM Tris, 150 mM NaCl, pH 7.5, 150 μM peptide, 25°C, one-binding site model", "procedure": "Peptide variants were prepared as N-terminal acetamides and C-terminal amides (see ESI ^†). […] Lastly, structural effects of these variations were investigated using circular dichroism (CD) spectroscopy (Fig. S4, ESI ^†).\n(b) ITC data (50 mM Tris, 150 mM NaCl, pH 7.5, 150 μM peptide). […]\nITC experiments were carried out using a Microcal ITC200i instrument (Malvern) at 25°C in […]\n[…] The protein of interest was dialysed against the buffer prior to experiment, and lyophilized peptides were dissolved in the same buffer. Protein was present in the cell and titrated with peptide solutions loaded into the syringe using 20 x 2 uL injections with 120 s spacing between the injections. Heats of peptide dilution were subtracted from each measurement raw data. Data was analysed using Microcal Origin 8 and"}}, "note": "Like-named read-outs stand apart in the source and are kept apart here.", "data": [{"compound": "CC[C@H](C)[C@H](NC(=O)[C@@H](NC(=O)[C@H](CCC(=O)O)NC(=O)[C@H](CC(=O)O)NC(=O)[C@H](CCC(=O)O)NC(=O)[C@H](CC(N)=O)NC(=O)[C@H](CC(=O)O)NC(C)=O)C(C)C)C(=O)N[C@H](C(=O)N[C@H](C(=O)N[C@@H](Cc1c[nH]c2ccccc12)C(=O)N[C@@H](CCC(=O)O)C(=O)N[C@@H](CCCCN)C(=O)N[C@@H](CCCCN)C(N)=O)C(C)C)[C@@H](C)CC", "note": "[SIM2705–2717I2708D]", "values": [{"measurement": "IC50", "setting": "hSUMO-1 18-97", "result": "14.8 ± 0.7", "unit": "µM"}, {"measurement": "maximum solubility / concentration obtained", "setting": "[1]; qualitative test", "result": "> 8", "unit": "mM"}]}, {"compound": "Ac-AAQYRRIGDKVNLRQKLLN-NH2 [NOXA75–93L78Y]", "values": [{"measurement": "IC50", "setting": "hMCL-1 172-327", "result": "> 100", "unit": "µM"}, {"measurement": "inhibitory activity in competition FA", "setting": "hMCL-1 172-327; competition FA vs FITC-Ahx-BIM75–85/MCL-1, relative to NOXA75–93", "result": "poor inhibitor"}, {"measurement": "increased rate of cleavage by α-chymotrypsin relative to NOXA75–93", "setting": "α-chymotrypsin", "result": "≈ 10 fold"}]}, {"compound": "CC[C@H](C)[C@H](NC(=O)[C@H](CCC(=O)O)NC(=O)[C@H](CC(N)=O)NC(=O)[C@H](CC(=O)O)NC(C)=O)C(=O)N[C@@H](CCC(=O)O)C(=O)N[C@H](C(=O)N[C@H](C(=O)N[C@H](C(=O)N[C@H](C(=O)N[C@@H](Cc1c[nH]c2ccccc12)C(=O)N[C@@H](CCC(=O)O)C(=O)N[C@@H](CCCCN)C(=O)N[C@@H](CCCCN)C(N)=O)C(C)C)[C@@H](C)CC)[C@@H](C)CC)C(C)C", "note": "[SIM2705–2717]", "values": [{"measurement": "maximum solubility / concentration obtained", "setting": "[1]", "result": "~ 1 mM"}]}, {"compound": "Ac-AAQFRRIGDKVNLRQKLLN-NH2 [NOXA75–93L78F]", "values": [{"measurement": "Kd", "setting": "MCL-1", "result": "1.7 ± 0.1", "unit": "µM"}, {"measurement": "IC50", "setting": "hMCL-1 172-327", "result": "2.7 ± 0.1", "unit": "µM"}, {"measurement": "increased rate of cleavage by α-chymotrypsin relative to NOXA75–93", "setting": "α-chymotrypsin", "result": "≈ 10 fold"}]}]}
